In ChEMBL document CHEMBL4342428, “d-Limonene Ameliorates Myocardial Infarction Injury by Reducing Reactive Oxygen Species and Cell Apoptosis in a Murine Model” (2019):
Active and inactive are the calls of the source. The calls are words filed in the database; no cut-off is given here.

How the values were obtained:
[1] = tested on: Mus musculus; experiment: Cardioprotective activity in Swiss mouse model of isoproterenol-induced myocardial infarction assessed as reduction in lactate dehydrogenase at 1200 mg/kg administered 30 mins post isoproterenol stimulation; format: functional, organism-based
[2] = tested on: Mus musculus; experiment: Cardioprotective activity in Swiss mouse model of myocardial infarction assessed as reversal of isoproterenol-induced increase in heart rate at 1200 mg/kg administered 30 mins post isoproterenol stimulation and measured for 5 mins by electrocardiographic analysis; format: functional, organism-based
[3] = tested on: Mus musculus; experiment: Cardioprotective activity against isoproterenol-induced apoptosis in Swiss mouse model of myocardial infarction assessed as reduction in Bax/Bcl2 expression ratio in at 1200 mg/kg administered 30 mins post isoproterenol stimulation by Western blot analysis; format: functional, organism-based
[4] = tested on: Mus musculus; experiment: Cardioprotective activity in Swiss mouse model of isoproterenol-induced myocardial infarction assessed as reduction in creatine kinase myocardial band at 1200 mg/kg administered 30 mins post isoproterenol stimulation; format: functional, organism-based
[5] = tested on: Mus musculus; experiment: Cardioprotective activity in Swiss mouse model of isoproterenol-induced myocardial infarction assessed as reduction in myocardial infarct size at 1200 mg/kg administered 30 mins post isoproterenol stimulation by TTC staining based assay; format: functional, organism-based
[6] = tested on: Mus musculus; experiment: Cardioprotective activity against isoproterenol-induced apoptosis in Swiss mouse model of myocardial infarction assessed as reduction in Bax expression at 1200 mg/kg administered 30 mins post isoproterenol stimulation by Western blot analysis; format: functional, organism-based
[7] = tested on: Mus musculus; experiment: Cardioprotective activity against isoproterenol-induced oxidative stress in Swiss mouse model of myocardial infarction assessed as reduction in ROS generation at 1200 mg/kg administered 30 mins post isoproterenol stimulation by DHE staining based fluorescence assay; format: functional, organism-based
[8] = tested on: Mus musculus; experiment: Cardioprotective activity against isoproterenol-induced apoptosis in Swiss mouse model of myocardial infarction assessed as increase in Bcl2 expression at 1200 mg/kg administered 30 mins post isoproterenol stimulation by Western blot analysis; format: functional, organism-based
[9] = tested on: Mus musculus; experiment: Cardioprotective activity in Swiss mouse model of isoproterenol-induced myocardial Infarction assessed as abnormal ST-segment at 1200 mg/kg administered 30 mins post isoproterenol stimulation and measured for 5 mins by electrocardiographic analysis (reference value: 70%); format: functional
[10] = tested on: Mus musculus; experiment: Cardioprotective activity in Swiss mouse model of myocardial infarction assessed as reversal of isoproterenol-induced increase in QTc interval at 1200 mg/kg administered 30 mins post isoproterenol stimulation and measured for 5 mins by electrocardiographic analysis; format: functional, organism-based
[11] = tested on: Mus musculus; experiment: Cardioprotective activity in Swiss mouse model of isoproterenol-induced myocardial infarction assessed as reduction in lactate dehydrogenase at 10 umol, ip administered 30 mins post isoproterenol stimulation; format: functional, organism-based
[12] = tested on: Mus musculus; experiment: Cardioprotective activity against isoproterenol-induced oxidative stress in Swiss mouse model of myocardial infarction assessed as increase in catalase activity at 10 umol, ip administered 30 mins post isoproterenol stimulation by spectrophotometric method; format: functional, organism-based
[13] = tested on: Mus musculus; experiment: Cardioprotective activity against isoproterenol-induced oxidative stress in Swiss mouse model of myocardial infarction assessed as increase in SOD activity at 10 umol, ip administered 30 mins post isoproterenol stimulation by spectrophotometric method; format: functional, organism-based
[14] = tested on: Mus musculus; experiment: Cardioprotective activity against isoproterenol-induced apoptosis in Swiss mouse model of myocardial infarction assessed as change in Bcl2 expression at 10 umol, ip administered 30 mins post isoproterenol stimulation by Western blot analysis; format: functional, organism-based
[15] = tested on: Mus musculus; experiment: Cardioprotective activity against isoproterenol-induced oxidative stress in Swiss mouse model of myocardial infarction assessed as increase in GPx activity at 10 umol, ip administered 30 mins post isoproterenol stimulation by spectrophotometric method; format: functional, organism-based
[16] = tested on: Mus musculus; experiment: Cardioprotective activity against isoproterenol-induced oxidative stress in Swiss mouse model of myocardial infarction assessed as reduction in lipid peroxidation at 10 umol, ip administered 30 mins post isoproterenol stimulation by TBARS method; format: functional, organism-based
[17] = tested on: Mus musculus; experiment: Cardioprotective activity in Swiss mouse model of isoproterenol-induced myocardial infarction assessed as reduction in creatine kinase myocardial band at 10 umol, ip administered 30 mins post isoproterenol stimulation; format: functional, organism-based
[18] = tested on: Mus musculus; experiment: Cardioprotective activity in Swiss mouse model of myocardial infarction assessed as reversal of isoproterenol-induced increase in QTc interval at 10 umol, ip administered 30 mins post isoproterenol stimulation and measured for 5 mins by electrocardiographic analysis; format: functional, organism-based
[19] = tested on: Mus musculus; experiment: Cardioprotective activity against isoproterenol-induced apoptosis in Swiss mouse model of myocardial infarction assessed as reduction in Bax expression at 10 umol, ip administered 30 mins post isoproterenol stimulation by Western blot analysis; format: functional, organism-based
[20] = tested on: Mus musculus; experiment: Cardioprotective activity in Swiss mouse model of myocardial infarction assessed as reversal of isoproterenol-induced increase in heart rate at 10 umol, ip administered 30 mins post isoproterenol stimulation and measured for 5 mins by electrocardiographic analysis; format: functional, organism-based
[21] = tested on: Mus musculus; experiment: Cardioprotective activity against isoproterenol-induced oxidative stress in Swiss mouse model of myocardial infarction assessed as reduction in sulfhydryl level in cardiac tissue homogenate at 10 umol, ip administered 30 mins post isoproterenol stimulation by spectrophotometric method; format: functional, organism-based
[22] = tested on: Mus musculus; experiment: Cardioprotective activity in Swiss mouse model of isoproterenol-induced myocardial Infarction assessed as abnormal ST-segment at 10 umol, ip administered 30 mins post isoproterenol stimulation and measured for 5 mins by electrocardiographic analysis (reference value: 70%); format: functional
[23] = tested on: Mus musculus; experiment: Cardioprotective activity in Swiss mouse model of isoproterenol-induced myocardial infarction assessed as reduction in inflammatory cell infiltration in myocardium at 10 umol, ip administered 30 mins post isoproterenol stimulation by H and E staining based histopathological analysis; format: functional, organism-based
[24] = tested on: Mus musculus; experiment: Cardioprotective activity in Swiss mouse model of myocardial infarction assessed as protection against isoproterenol-induced vacuolation in myocardium at 10 umol, ip administered 30 mins post isoproterenol stimulation by H and E staining based histopathological analysis; format: functional, organism-based
[25] = tested on: Mus musculus; experiment: Cardioprotective activity in Swiss mouse model of myocardial infarction assessed as protection against isoproterenol-induced wide spacing in myocardium at 10 umol, ip administered 30 mins post isoproterenol stimulation by H and E staining based histopathological analysis; format: functional, organism-based
[26] = tested on: Mus musculus; experiment: Cardioprotective activity against isoproterenol-induced oxidative stress in Swiss mouse model of myocardial infarction assessed as change in ferric ion reducing activity at 10 umol, ip administered 30 mins post isoproterenol stimulation by FRAP assay; format: functional, organism-based
[27] = tested on: Mus musculus; experiment: Cardioprotective activity in Swiss mouse model of myocardial infarction assessed as protection against isoproterenol-induced capillary congestion in myocardium at 10 umol, ip administered 30 mins post isoproterenol stimulation by H and E staining based histopathological analysis; format: functional, organism-based
[28] = tested on: Mus musculus; experiment: Cardioprotective activity against isoproterenol-induced oxidative stress in Swiss mouse model of myocardial infarction assessed as reduction in ROS generation at 10 umol, ip administered 30 mins post isoproterenol stimulation by DHE staining based fluorescence assay; format: functional, organism-based
[29] = tested on: Mus musculus; experiment: Cardioprotective activity against isoproterenol-induced oxidative stress in Swiss mouse model of myocardial infarction assessed as reduction in protein carbonylation at 10 umol, ip administered 30 mins post isoproterenol stimulation by spectrophotometric method; format: functional, organism-based
[30] = tested on: Mus musculus; experiment: Cardioprotective activity in Swiss mouse model of isoproterenol-induced myocardial infarction assessed as reduction in myocardial infarct size at 10 umol, ip administered 30 mins post isoproterenol stimulation by TTC staining based assay; format: functional, organism-based
[31] = tested on: Mus musculus; experiment: Cardioprotective activity against isoproterenol-induced apoptosis in Swiss mouse model of myocardial infarction assessed as reduction in Bax/Bcl2 expression ratio in at 10 umol, ip administered 30 mins post isoproterenol stimulation by Western blot analysis; format: functional, organism-based
[32] = tested on: Mus musculus; experiment: Cardioprotective activity in Swiss mouse model of myocardial infarction assessed as protection against isoproterenol-induced mononuclear cell infiltration in myocardium at 10 umol, ip administered 30 mins post isoproterenol stimulation by H and E staining based histopathological analysis; format: functional, organism-based
[33] = tested on: Mus musculus; experiment: Cardioprotective activity in Swiss mouse model of myocardial infarction assessed as protection against isoproterenol-induced degeneration in myocardium at 10 umol, ip administered 30 mins post isoproterenol stimulation by H and E staining based histopathological analysis; format: functional, organism-based
[34] = tested on: Mus musculus; experiment: Cardioprotective activity against isoproterenol-induced oxidative stress in Swiss mouse model of myocardial infarction assessed as reduction in caspase-3 expression at 10 umol, ip administered 30 mins post isoproterenol stimulation by Western blot analysis; format: functional, organism-based
[35] = tested on: Mus musculus; experiment: Cardioprotective activity in Swiss mouse model of myocardial infarction assessed as protection against isoproterenol-induced discontinuity in myocardium at 10 umol, ip administered 30 mins post isoproterenol stimulation by H and E staining based histopathological analysis; format: functional, organism-based

CC(=O)N[C@@H](CS)C(=O)O [ACETYLCYSTEINE]
Activity [1]: Active | Activity [2]: Active | Activity [3]: Active | Activity [4]: Active | Activity [5]: Active | Activity [6]: Active | Activity [7]: Active | Activity [8]: Active | Activity [9]: 20% | Activity [10]: Active

C=C(C)[C@H]1CC=C(C)CC1 [D-LIMONENE]
Activity [11]: Active | Activity [12]: inactive | Activity [13]: Active | Activity [14]: inactive | Activity [15]: Active | Activity [16]: Active | Activity [17]: Active | Activity [18]: Active | Activity [19]: Active | Activity [20]: Active | Activity [21]: Active | Activity [22]: 30% | Activity [23]: Active | Activity [24]: Active | Activity [25]: Active | Activity [26]: inactive | Activity [27]: Active | Activity [28]: Active | Activity [29]: Active | Activity [30]: Active | Activity [31]: Active | Activity [32]: Active | Activity [33]: Active | Activity [34]: Active | Activity [35]: Active
